One data set has as its system Bcl-2. Put plainly: Western blotting, inhibition (downregulation) of Bcl-2 in tumor cells, Example 23. Type of data set: cell-based. As to conditions: Western blotting, tumor cells. As for the experimental part:
(§1) The interest protein was detected by the corresponding antibody. The expression of the interest protein in the cells was detected by horseradish peroxidase-labeled secondary antibodies in combination with ECL coloration method. […] The concentration of the protein bands in the Western images were carried out semiquantitative analysis and normalization treatment with KODAK Gel Logic 1500 imaging system software.
(A western blot detects proteins with antibodies after separation by electrophoresis.)

The test system of another data set is Mcl-1. In words: Western blotting, inhibition (downregulation) of Mcl-1 in tumor cells, Example 23. Type of data set: cell-based. As to conditions: Western blotting, tumor cells. As for the experimental part: as §1
In a further data set the test system is MCF-7 cells. In words: cytotoxicity depending on BAX/BAK, MTT, MCF-7 cells with or without BAX/BAK interfering plasmid. The note with it: MCF-7 cells, 48 hours, MTT. Type of data set: cell-based. As for the experimental part: 3 ng of BAX/BAK interfering plasmid was transfected into MCF-7 cells by using calcium phosphate coprecipitation method, 24 hours later, the cells were collected. The expressions after the BAX and BAK proteins interfered with RNA was detected by Western, and the cell groups without plasmid transfection were treated similarly and were set as the control group. The transfected cells were inoculated in a 96-well plate (1×10^5 cells/well), the control experiment of the cell group without plasmid transfection was carried out in parallel. The compound 3-thiomorpholinyl-8-oxo-8 H-acenaphtho[1,2-b]pyrrole-9-carbonitrile to be detected was added thereinto according to the concentration gradient designed before the experiment. 48 hours later, the cellular vitality was detected by MTT. The experimental results were shown in FIG. 6, Gossypol as nonspecific BH3 analogue was treated in parallel.

Data set [1] deals with hepatoma carcinoma cells H22. Put plainly: in vivo tumor model, subcutaneous H22 tumor in Kunming mice. As for the experimental part: The Kunming mice (in China) were randomly divided into groups, with 10 mice in each group. The cultivated hepatoma carcinoma cells H22 were inoculated subcutaneously in the oxter of the mice with 200 μL/mouse. After bearing the cancer cells for five days, the subcutaneous tumor was formed. Then the compound 3-thiomorpholinyl-8-oxo-8H-acenaphtho[1,2-b]pyrrole-9-carbonitrile and γ-cyclodextrin inclusion compound thereof were given by peritoneal injection, and the compound to be detected included by γ-cyclodextrin was given by oral administration. The detection conditions comprise:
Blank control group: the mice were not treated in any manner after the bearing cancer;
Control group (1): the mice were given a peritoneal injection of DMSO solution every other day after the bearing cancer, 10 days in total;
Control group (2): the mice were given a peritoneal injection of cyclodextrin solution every other day after the bearing cancer, 10 days in total;
Experimental group (1): the mice were given a peritoneal injection of DMSO solution equivalent to 0.03 mg/kg BW compound every other day after the bearing cancer, 10 days in total;
Experimental group (2): the mice were given a peritoneal injection of DMSO solution equivalent to 0.3 mg/kg BW compound every other day after the bearing cancer, 10 days in total;
Experimental group (3): the mice were given a peritoneal injection of inclusion compound water solution equivalent to 0.3 mg/kg BW compound every other day after the bearing cancer, 10 days in total;
Experimental group (4): the mice were given an intragastric administration of inclusion compounds water solution equivalent to 0.3 mg/kg BW compound every other day after the bearing cancer, 10 days in total;
During the experimental period, the length-diameter (a) and short diameter (b), which was perpendicular to the length-diameter, of the tumor were detected twice every week. The gross tumor volume was determined according to the formula: ½ab^2. The survival time of the animal was observed. The tumor inhibition rate was calculated by the tumor volume on the fortieth day.

A further data set addresses GST-Bcl-2 protein. In words: fluorescence polarization assay, competitive binding against FAM-Bid peptide. The note with it: GST-Bcl-2 40 nM, FAM-Bid 5 nM, 4 hours of incubation; read-out: competitive binding constant (Ki). As for the experimental part: A Bid BH3 peptide (amino acids: 79-99: […]) having 21 amino acids was synthesized and marked with 6-carboxyfluorescein N-succinimidyl ester (FAM) as fluorescent tag (FAM-Bid) at the N-terminal. The reaction system used in the competitive binding experiment was GST-Bcl-2 protein (40 nM) or Mcl-1 protein, which was dissolved in the reaction buffer (100 mM K3PO4, pH 7.5; 100 μg/ml bovine γ albumin; 0.02% sodium azide) together with FAM-Bid polypeptide (5 nM). In a 96-well plate, 100 μL of the reaction system was added into each well. Then 1 μL different concentration of 3-thiomorpholinyl-8-oxo-8H-acenaphtho[1,2-b]pyrrole-9-carbonitrile mother solution to be detected dissolved in DMSO was added thereinto until the final concentration met the experimental design requirements. Meanwhile, two control groups were established, one with the reaction system only contains Bcl-2 or Mcl-1 and FAM-Bid (equivalent to 0% inhibition rate), the other with the reaction system only containing FAM-Bid peptide. After 4 hours of incubation, the 96-well plate was detected by enzyme-labelled meter. The fluorescent polarization value (mP) was tested at […]. Ki value was deduced according to calculation formula. The competitive binding constant between the compound and Bcl-2 was 310 nM.
On the technique in general: Fluorescence polarisation rises when a labelled molecule tumbles more slowly, as on binding a larger partner.

The target of data set [2] is T1, interaction between Bcl-2 and Bax (Homo sapiens, UniProt P10415).
T1 construct: expressed in transfected cells; host or cells: Hela cells
Put plainly: intracellular fluorescence polarization energy transfer (FRET), Hela cells transfected with Bcl-2-CFP and Bax-YFP. Type of data set: cell-based. As for the experimental part: 24 hours later (please refer to FIG. 2), the cells were washed with PBS for three times. The fluorescence value was detected by GENIOS fluorescence enzyme-labelled meter (TECAN, Swiss). In time-dependent experiment, the transfected cells were inoculated in a 6-well plate, after that, 40 μM of the compound was added thereinto. 3, 6 and 24 hours later (FIG. 3), the fluorescence intensities were detected by plate reader. As for the cell group in which only Bcl-2-CFP plasmid was transfected, the values at 475 nm emission wave length and 433 nm excitation wave length were recorded. As for the cell group in which only Bax-YFP plasmid was transfected, the values at 527 nm emission wave length and 505 nm excitation wave length were recorded. […] The ratio of fluorescence intensity at 527 nm and 475 nm emission wave lengths was FRET. The FRET for the control group in which the plasmid was solely transfected was set as 1.0. […] The cellular vitality was detected by MTT method.
Wherein the concentration and time meant that the detected compound interfered with the interaction between Bcl-2 and Bax at the concentration for the time period.

Structures are written as SMILES.

T1 sequence (P10415 whole entry): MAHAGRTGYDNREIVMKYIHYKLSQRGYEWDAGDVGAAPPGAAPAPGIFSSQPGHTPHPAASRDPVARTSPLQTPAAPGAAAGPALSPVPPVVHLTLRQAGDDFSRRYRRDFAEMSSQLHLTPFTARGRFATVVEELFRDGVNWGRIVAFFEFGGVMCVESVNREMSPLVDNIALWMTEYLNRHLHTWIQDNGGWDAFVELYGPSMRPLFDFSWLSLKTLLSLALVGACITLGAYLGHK

For the compound `N#CC1=C2C(=NC1=O)c1cccc3c(N4CCSCC4)ccc2c13` [3-thiomorpholinyl-8-oxo-8H-acenaphtho[1,2-b]pyrrole-9-carbonitrile], the “inhibition against Bcl-2” value in the data set on Bcl-2 is recorded as “had the inhibition against these two proteins”. In addition, in the data set with Mcl-1, the “inhibition against Mcl-1” value was “had the inhibition against these two proteins”. For the same compound, the “dependence of cytotoxicity on BAX/BAK” value in the data set on MCF-7 cells is recorded as “cytotoxicity of absolute dependence on BAX/BAK”. In data set [1] (compound group, control group 28±2.1 days), the “average life (survival time) of the animal” value was 33 ± 3.1 days. In addition, the tumor inhibition rate in data set [1] (experimental group 2: peritoneal injection of DMSO solution, 0.3 mg/kg BW every other day, 10 days, tumor volume on the fortieth day) is reported as 22.3%. Further, the Ki at GST-Bcl-2 protein was determined as 310 nM. Further, in data set [2] (goes with the concentration of E11), the “Time for which the compound interfered with the interaction between Bcl-2 and Bax” value was found to be 3 h. Further, the “Concentration at which the compound interfered with the interaction between Bcl-2 and Bax” value in data set [2] (goes with the time of E12) amounted to 2 µM.

By Ki is commonly meant the equilibrium dissociation constant of an inhibitor or competing ligand from its target.

Values taken from patent US20110251188A1, “ACENAPHTHO HETEROCYCLE COMPOUNDS, CYCLODEXTRIN INCLUSION COMPOUNDS AND COMPLEXES, AND USES IN THE MANUFACTURES OF BH3 PROTEIN ANALOGUE, BCL-2 FAMILY PROTEIN INHIBITORS THEREOF” (DALIAN UNIVERSITY OF TECHNOLOGY, priority 2008, published 2011).
